Test results published in patent US10080751B2, “Systems and methods for treating bacterial infection” (priority 2016, dated 2018).
≈ marks a conversion by molar mass, not a printed value. Where two headings read alike, the source gives them in different places.

Experiments:
[1] = test system: nosocomial pneumonia suspected or confirmed to be caused by Gram-positive pathogens; settings: cited from earlier work; for cure rate: intent-to-treat, test of cure visit
E. faecalis = experiment: MIC with/without bovine pulmonary surfactant, E. faecalis; format: cell-based, Enterococcus faecalis; settings: for MICRZ, Resazurin: +BPS: 2.5% v/v BPS; for MICRZ, Resazurin: no BPS
Experimental: (§1) Clinical isolates were identified by the submitting laboratories and confirmed by JMI Laboratories using standard bacteriologic algorithms and methodologies, including Matrix-Assisted Laser Desorption Ionization-Time Of Flight Mass Spectrometry (MALDI-TOF MS). When necessary, MALDI-TOF MS was performed using the Bruker Daltonics MALDI Biotyper (Billerica, Mass., USA), following manufacturer's instructions. Isolates selected were bacterial species commonly associated with pneumonia. […] 2.2 Susceptibility testing
(§2) Antibacterial susceptibility testing was measured by JMI Labs (North Liberty, Iowa, USA). […] These clinical isolates were collected from US (n=4), Mexico (n=2), and Italy (n=1). Susceptibility testing was performed by broth microdilution in accordance with the Clinical and Laboratory and Standards Institute (CLSI) guidelines M07-A10 (2015) and the standard operating procedures at JMI laboratories. Minimum inhibitory concentrations (MICs) were based on CLSI criteria (2015). There are no published breakpoints for iclaprim. E. coli, K. pneumoniae, M. catarrhalis, E. faecalis, and S. aureus were tested in cation-adjusted Mueller-Hinton broth (CA-MHB). S. pneumoniae were tested in CA-MHB supplemented with 2.5-5% lysed horse blood, and H. influenza were tested in Haemophilus test medium. Quality control and interpretation of results were performed in accordance with CLSI M100-S26 (2016) methods. QC ranges for iclaprim were those approved by CLSI and published in M100-S26 (2016). Iclaprim and comparator antibiotic MIC results were within the CLSI published ranges against E. coli ATCC 25922, E. faecalis ATCC 29212, E. faecalis ATCC 33186, H. influenzae ATCC 49247, K. pneumoniae ATCC 700603 (ESBL phenotype), S. aureus ATCC 29213, and S. pneumoniae ATCC 49619. Isolates were tested with MIC panels (ThermoFisher Scientific, Cleveland, Ohio, USA) of comparator antibiotics (daptomycin and levofloxacin).
(§3) Because bovine pulmonary surfactant can introduce cloudiness to the MIC testing media, antimicrobial growth inhibition was also evaluated using the colorimetric metabolic indicator resazurin (Camlab Ltd., Cambridge, UK). […] S. pneumoniae panels were omitted from resazurin analysis because the color change was obscured by the lysed horse blood present in the test medium. Growth inhibition was then evaluated as a visible color change from blue (no growth) to pink (robust growth) and recorded as a MICRZ value.
(§4) The MICs of iclaprim, levofloxacin, and daptomycin were determined against Gram-positive and Gram-negative isolates.
(§5) A new vial of bovine pulmonary surfactant (BPS; Survanta®; Abbott Laboratories, Columbus, Ohio) was utilized for each independent experiment. Each vial was mixed thoroughly and a 100 μL aliquot was spread on an agar plate, which was incubated overnight to confirm sterility. […] The concentration of surfactant was expressed in terms of percent volume of Survanta® suspension, which consisted of phospholipid (25 mg/mL) and surfactant proteins (<1 mg/mL) in 0.9% sodium chloride solution (Goerke, 1998). MICs of daptomycin were determined in CAMHB with the Ca^2+ content adjusted to 50 mg/L.

K. pneumoniae = experiment: MIC with/without bovine pulmonary surfactant, K. pneumoniae; format: cell-based, Klebsiella pneumoniae; settings: for MIC: Klebsiella pneumoniae
Experimental: as §1, §2, §3, §4, §5

H. influenzae = experiment: MIC with/without bovine pulmonary surfactant, H. influenzae; format: cell-based, Haemophilus influenzae; settings: for MIC: Haemophilus influenzae
Experimental: as §1, §2, §3, §4, §5

[2] = test system: isolated rabbit Purkinje fibers

In the case of `COc1cc(Cc2cnc(N)nc2N)c2c(c1OC)OC(C1CC1)C=C2` (racemic) [Iclaprim], the “death rate within 28 days of the start of treatment” value ([1]; iclaprim q12h) is given as 8.7%, the cure rate ([1]; iclaprim 0.8 mg/kg IV q12h) is given as 73.9% and the cure rate ([1]; iclaprim 1.6 mg/kg IV q8h) is given as 62.5%. The “MICRZ, Resazurin: +BPS” value (E. faecalis; E. faecalis ATCC 29212) was “<=0.015 μg/mL”, the “MICRZ, Resazurin” value (E. faecalis; E. faecalis ATCC 29212) was “<=0.015 μg/mL” and the “MICRZ, Resazurin: +BPS” value (E. faecalis; E. faecalis ATCC 33186) was “<=0.015 μg/mL”. For the same compound, the “MICRZ, Resazurin” value (E. faecalis; E. faecalis ATCC 33186) was 0.03 µg/mL, the “MICRZ, Resazurin: +BPS” value (K. pneumoniae; K. pneumoniae ATCC 700603, 2.5% v/v BPS) was 4 µg/mL and the “MICRZ, Resazurin” value (K. pneumoniae; K. pneumoniae ATCC 700603, no BPS) was 4 µg/mL. For the same compound, the “MICRZ, Resazurin: +BPS” value (K. pneumoniae; K. pneumoniae Clinical Isolate 858055, 2.5% v/v BPS) was 2 µg/mL, the “MICRZ, Resazurin” value (K. pneumoniae; K. pneumoniae Clinical Isolate 858055, no BPS) was 2 µg/mL and the MIC (K. pneumoniae; ATCC700603, K. pneumoniae ATCC 700603, 2.5% v/v BPS, read-out: MIC, CLSI: +BPS) was 4 µg/mL (≈ 11.3 µM). The MIC (K. pneumoniae; ATCC700603, K. pneumoniae ATCC 700603, no BPS, read-out: MIC, CLSI) was 4 µg/mL (≈ 11.3 µM), the MIC (K. pneumoniae; K. pneumoniae Clinical Isolate 858055, 2.5% v/v BPS, read-out: MIC, CLSI: +BPS) was 2 µg/mL (≈ 5.64 µM) and the MIC (K. pneumoniae; K. pneumoniae Clinical Isolate 858055, no BPS, read-out: MIC, CLSI) was 2 µg/mL (≈ 5.64 µM). For the same compound, the “MICRZ, Resazurin: +BPS” value (H. influenzae; H. influenzae ATCC 49247, 2.5% v/v BPS) was 0.25 µg/mL, the “MICRZ, Resazurin” value (H. influenzae; H. influenzae ATCC 49247, no BPS) was 0.25 µg/mL and the “MICRZ, Resazurin: +BPS” value (H. influenzae; H. influenzae Clinical Isolate 824704, 2.5% v/v BPS) was 0.06 µg/mL. The “MICRZ, Resazurin” value (H. influenzae; H. influenzae Clinical Isolate 824704, no BPS) was 0.06 µg/mL, the MIC (H. influenzae; ATCC49247, H. influenzae ATCC 49247, 2.5% v/v BPS, read-out: MIC, CLSI: +BPS) was 0.12 µg/mL (≈ 0.339 µM) and the MIC (H. influenzae; ATCC49247, H. influenzae ATCC 49247, no BPS, read-out: MIC, CLSI) was 0.12 µg/mL (≈ 0.339 µM). The MIC (H. influenzae; H. influenzae Clinical Isolate 824704, 2.5% v/v BPS, read-out: MIC, CLSI: +BPS) was 0.06 µg/mL (≈ 0.169 µM), the MIC (H. influenzae; H. influenzae Clinical Isolate 824704, no BPS, read-out: MIC, CLSI) was 0.06 µg/mL (≈ 0.169 µM) and the “iclaprim concentrations at which action potential duration was increased” value [2] was “above 1 μM”.
